Where two headings read alike, the source gives them in different places. Starred links: 1 amine or outer side, 2 acyl side, 3 side chain; linkers in the order of their positions; H or OH if unused. Non-standard residues stand in square brackets, D forms with d. Residues, ends and D or L forms follow the SMILES beside them. *: point of attachment. DOTA = O=C(O)CN1CCN(CC(=O)O)CCN(CC(=O)*)CCN(CC(=O)O)CC1; Bpa = N[C@@H](Cc1ccc(C(=O)c2ccccc2)cc1)C(=O)O; d2Nal = N[C@H](Cc1ccc2ccccc2c1)C(=O)O; X2 = O=C(N(N[*:1])c1ccccn1)[*:2]; Nicotinoyl = O=C(c1cccnc1)*; NHPh = c1ccc(N*)cc1; azaGly = NNC(=O)O; Sar = CNCC(=O)O
Tested on: LHRH binding sites on human ovarian cancer cells (EFO-27)
[1] = EFO-27 cells, competition with [125I-Tyr8]BRU-2477, 90 min
[2] = Table 5: modifications of amino acids at positions 1 and 2, in vitro binding on EFO-27 cells
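Note: Cell-associated radioactivity on confluent EFO-27 monolayers in 96-well plates, measured by microplate scintillation counting.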

Description: The EFO27 human ovarian cancer cells were obtained from the American Type Culture Collection and cultured in growth medium, RPMI 1640 (Cellgro) supplemented with 10% fetal bovine serum. The cultures were maintained in a humidified atmosphere containing 5% CO2/95% air at 37° C. and passaged and harvested routinely using 0.05% trypsin/EDTA.
LHRH compounds were screened in a standard cell-based plate assay for their ability to compete with the radio-iodinated LHRH, [Darg^6, ^125I-Tyr^8,azaGly^10-LHRH-II] ([^125I-Tyr^8]BRU-2477) for binding to cancer cells. […] Briefly, EFO-27 cells were cultured and seeded in 96-well clear flat bottom plates at 30,000/well density in growth medium and were used for the assay at 100% confluence the following day, after a wash with chilled phosphate-buffered saline pH 7.4 (PBS). The binding assay was carried out by incubating cells with [^125I-Tyr^8]BRU-2477 in the absence or presence of varying concentrations of test compounds for 90 min at −10° C. All compounds were diluted in phosphate buffered saline (VWR CAT#45000-434) supplemented with 20 mM HEPES, 0.1% BSA, 0.5 mM PMSF (AEBSF), bacitracin (100 mg/L), pH 7.4. At the end of incubation, cells were washed with PBS and the radioactivity associated with each well was read using a Microplate Scintillation counter. [^125I-Tyr^8]BRU-2477 was custom made by GE Healthcare (Woburn, Mass.) and supplied as freeze-dried powder with a radiochemical purity (RCP) of >95% and specific activity of 2000 Ci/mmol.

| EC50 [nM] | SMILES | EC50 [1] [nM] | further results |
| --- | --- | --- | --- |
| 280 | N=C(N)NCCC[C@H](NC(=O)[C@@H](Cc1ccc2ccccc2c1)NC(=O)CN1CCN(CC(=O)O)CCN(CC(=O)O)CCN(CC(=O)O)CC1)C(=O)N[C@@H](Cc1c[nH]c2ccccc12)C(=O)N[C@@H](CO)C(=O)N[C@@H](Cc1c[nH]cn1)C(=O)N[C@H](CCCNC(=N)N)C(=O)N[C@@H](Cc1c[nH]c2ccccc12)C(=O)N[C@@H](Cc1ccc(C(=O)c2ccccc2)cc1)C(=O)N1C[C@H](O)C[C@H]1C(=O)NNC(N)=O [compound 2952] | – | – |
| 590 ± 260 | CNCC(=O)N[C@@H](Cc1c[nH]cn1)C(=O)N[C@@H](Cc1c[nH]c2ccccc12)C(=O)N[C@@H](CO)C(=O)N[C@@H](Cc1c[nH]cn1)C(=O)N[C@H](CCCNC(=N)N)C(=O)N[C@@H](Cc1c[nH]c2ccccc12)C(=O)N[C@@H](Cc1ccc(C(=O)c2ccccc2)cc1)C(=O)N1CCC[C@H]1C(=O)NCCNC(=O)CN1CCN(CC(=O)O)CCN(CC(=O)O)CCN(CC(=O)O)CC1 [compound 3079] | – | – |
| 2260 | CN(CC(=O)N[C@@H](Cc1c[nH]cn1)C(=O)N[C@@H](Cc1c[nH]c2ccccc12)C(=O)N[C@@H](CO)C(=O)N[C@@H](Cc1c[nH]cn1)C(=O)N[C@H](CCCNC(=N)N)C(=O)N[C@@H](Cc1c[nH]c2ccccc12)C(=O)N[C@@H](Cc1ccc(Cl)cc1)C(=O)N1CCC[C@H]1C(=O)NNC(N)=O)C(=O)CN1CCN(CC(=O)O)CCN(CC(=O)O)CCN(CC(=O)O)CC1 [BRU-2725] | – | – |
| 10000 | CN(CC(=O)N[C@@H](Cc1c[nH]cn1)C(=O)N[C@@H](Cc1c[nH]c2ccccc12)C(=O)N[C@@H](CO)C(=O)N[C@@H](Cc1c[nH]cn1)C(=O)N[C@H](CCCNC(=N)N)C(=O)N[C@@H](Cc1c[nH]c2ccccc12)C(=O)N[C@@H](Cc1cscn1)C(=O)N1CCC[C@H]1C(=O)NNC(N)=O)C(=O)CN1CCN(CC(=O)O)CCN(CC(=O)O)CCN(CC(=O)O)CC1 [BRU-2742] | – | – |
| 710 | N=C(N)NCCC[C@H](NC(=O)[C@@H](Cc1ccc2ccccc2c1)NC(=O)CN1CCN(CC(=O)O)CCN(CC(=O)O)CCN(CC(=O)O)CC1)C(=O)N[C@@H](Cc1c[nH]c2ccccc12)C(=O)N[C@@H](CO)C(=O)N[C@@H](Cc1cscn1)C(=O)N[C@H](CCCNC(=N)N)C(=O)N[C@@H](Cc1c[nH]c2ccccc12)C(=O)N[C@@H](Cc1ccc(C(=O)c2ccccc2)cc1)C(=O)N1CCC[C@H]1C(=O)NNC(N)=O [compound 2958] | – | – |
| 590 to 1000 | CNCC(=O)N[C@@H](Cc1c[nH]cn1)C(=O)N[C@@H](Cc1c[nH]c2ccccc12)C(=O)N[C@@H](CO)C(=O)N[C@@H](Cc1c[nH]cn1)C(=O)N[C@H](CCCNC(=N)N)C(=O)N[C@@H](Cc1c[nH]c2ccccc12)C(=O)N[C@@H](Cc1ccc(C(=O)c2ccccc2)cc1)C(=O)N1CCC[C@H]1C(=O)NCCNC(=O)CN1CCN(CC(=O)O)CCN(CC(=O)O)CCN(CC(=O)O)CC1 [BRU-3079] | – | – |
| ≤ 200 | CNCC(=O)N[C@@H](CCCNC(=N)N)C(=O)N[C@@H](Cc1c[nH]c2ccccc12)C(=O)N[C@@H](CO)C(=O)N[C@@H](Cc1c[nH]cn1)C(=O)N[C@H](CCCNC(=N)N)C(=O)N[C@@H](Cc1c[nH]c2ccccc12)C(=O)N[C@@H](Cc1ccc(C(=O)c2ccccc2)cc1)C(=O)N1CCC[C@H]1C(=O)NCCNC(=O)CN1CCN(CC(=O)O)CCN(CC(=O)O)CCN(CC(=O)O)CC1 [BRU-3103] | – | – |
| 510 | N=C(N)NCCC[C@H](NC(=O)[C@@H](Cc1ccc2ccccc2c1)NC(=O)CN1CCN(CC(=O)O)CCN(CC(=O)O)CCN(CC(=O)O)CC1)C(=O)N[C@@H](Cc1c[nH]c2ccccc12)C(=O)N[C@@H](CO)C(=O)N[C@@H](Cc1c[nH]cn1)C(=O)N[C@H](CCCNC(=N)N)C(=O)N[C@@H](Cc1c[nH]c2ccccc12)C(=O)N[C@@H](Cc1ccc(C(=O)c2ccccc2)cc1)C(=O)N1CCC[C@H]1C(=O)NCCO [compound 2970] | – | – |
| 2010 | CN(CC(=O)N[C@@H](Cc1c[nH]cn1)C(=O)N[C@@H](Cc1c[nH]c2ccccc12)C(=O)N[C@@H](CO)C(=O)N[C@@H](Cc1c[nH]cn1)C(=O)N[C@H](CCCNC(=N)N)C(=O)N[C@@H](Cc1c[nH]c2ccccc12)C(=O)N[C@@H](Cc1ccc2ccccc2c1)C(=O)N1CCC[C@H]1C(=O)NNC(N)=O)C(=O)CN1CCN(CC(=O)O)CCN(CC(=O)O)CCN(CC(=O)O)CC1 [BRU-2624] | – | – |
| 4310 | CN(CC(=O)N[C@@H](Cc1c[nH]cn1)C(=O)N[C@@H](Cc1c[nH]c2ccccc12)C(=O)N[C@@H](CO)C(=O)N[C@@H](Cc1c[nH]cn1)C(=O)N[C@H](CCCNC(=N)N)C(=O)N[C@@H](Cc1c[nH]c2ccccc12)C(=O)NC1(C(=O)N2CCC[C@H]2C(=O)NNC(N)=O)Cc2ccccc2C1)C(=O)CN1CCN(CC(=O)O)CCN(CC(=O)O)CCN(CC(=O)O)CC1 [BRU-2764] | – | – |
| 980 | CN(CC(=O)N[C@@H](Cc1c[nH]cn1)C(=O)N[C@@H](Cc1c[nH]c2ccccc12)C(=O)N[C@@H](CO)C(=O)N[C@@H](Cc1c[nH]cn1)C(=O)N[C@H](CCCNC(=N)N)C(=O)N[C@@H](Cc1c[nH]c2ccccc12)C(=O)N[C@@H](Cc1ccc(C(C)(C)C)cc1)C(=O)N1CCC[C@H]1C(=O)NNC(N)=O)C(=O)CN1CCN(CC(=O)O)CCN(CC(=O)O)CCN(CC(=O)O)CC1 [BRU-2634] | – | – |

More lines, now with the values behind:

| SMILES | EC50 [nM] | EC50 [1] [nM] | further results |
| --- | --- | --- | --- |
| CN(CC(=O)N[C@@H](Cc1c[nH]cn1)C(=O)N[C@@H](Cc1c[nH]c2ccccc12)C(=O)N[C@@H](CO)C(=O)N[C@@H](Cc1c[nH]cn1)C(=O)N[C@H](CCCCNC(=N)N)C(=O)N[C@@H](Cc1c[nH]c2ccccc12)C(=O)N[C@@H](Cc1ccc(C(=O)c2ccccc2)cc1)C(=O)N1CCC[C@H]1C(=O)NNC(N)=O)C(=O)CN1CCN(CC(=O)O)CCN(CC(=O)O)CCN(CC(=O)O)CC1 [BRU-2893] | – | 2600 | – |
| N=C(N)NCCC[C@H](NC(=O)[C@@H](Cc1ccc2ccccc2c1)NC(=O)CN1CCN(CC(=O)O)CCN(CC(=O)O)CCN(CC(=O)O)CC1)C(=O)N[C@@H](Cc1c[nH]c2ccccc12)C(=O)N[C@@H](CO)C(=O)N[C@@H](Cc1c[nH]cn1)C(=O)N[C@H](CCCNC(=N)N)C(=O)N[C@@H](Cc1c[nH]c2ccccc12)C(=O)N[C@@H](Cc1ccc(C(=O)c2ccccc2)cc1)C(=O)N1CCC[C@H]1C(=O)NCCOCCNC(=N)N [compound 2985] | 460 | – | – |
| N=C(N)NCCC[C@H](NC(=O)[C@@H](Cc1ccc2ccccc2c1)NC(=O)CN1CCN(CC(=O)O)CCN(CC(=O)O)CCN(CC(=O)O)CC1)C(=O)N[C@@H](Cc1c[nH]c2ccccc12)C(=O)N[C@@H](CO)C(=O)N[C@@H](Cc1c[nH]cn1)C(=O)N[C@H](CCCNC(=N)N)C(=O)N[C@@H](Cc1c[nH]c2ccccc12)C(=O)N[C@@H](Cc1ccc(C(=O)c2ccccc2)cc1)C(=O)N1CCC[C@H]1C(=O)NCC(=O)NCCCO [compound 2987] | – | 2300 | – |
| CN(CC(=O)N[C@@H](Cc1c[nH]cn1)C(=O)N[C@@H](Cc1c[nH]c2ccccc12)C(=O)N[C@@H](CO)C(=O)N[C@@H](Cc1c[nH]cn1)C(=O)N[C@H](CCCCNC(=O)c1cccnc1)C(=O)N[C@@H](Cc1c[nH]c2ccccc12)C(=O)N[C@@H](Cc1ccc(C(=O)c2ccccc2)cc1)C(=O)N1CCC[C@H]1C(=O)NNC(N)=O)C(=O)CN1CCN(CC(=O)O)CCN(CC(=O)O)CCN(CC(=O)O)CC1 [compound 2671] ({DOTA}-[Sar]HWSH[dK](Nicotinoyl)W[Bpa]P[azaGly]-NH2) | – | 7200 | – |
| N=C(N)NCCC[C@H](NC(=O)[C@@H](Cc1ccc2ccccc2c1)NC(=O)CN1CCN(CC(=O)O)CCN(CC(=O)O)CCN(CC(=O)O)CC1)C(=O)N[C@@H](Cc1c[nH]c2ccccc12)C(=O)N[C@@H](CO)C(=O)N[C@@H](Cc1c[nH]cn1)C(=O)N[C@H](CCCNC(=N)N)C(=O)N[C@@H](Cc1c[nH]c2ccccc12)C(=O)N[C@@H](Cc1ccc(C(=O)c2ccccc2)cc1)C(=O)N1CCC[C@H]1C(=O)NCC(=O)NN(C(=O)Nc1ccccc1)c1ccccn1 [compound 2989] ({DOTA}-[d2Nal]RWSH[dR]W[Bpa]PG[X2]-NHPh) | – | 1130 | – |
| N=C(N)NCCC[C@@H](NC(=O)[C@H](Cc1c[nH]cn1)NC(=O)[C@H](CO)NC(=O)[C@H](Cc1c[nH]c2ccccc12)NC(=O)[C@H](Cc1c[nH]cn1)NC(=O)[C@@H](Cc1cccc2ccccc12)NC(=O)CNC(=O)CN1CCN(CC(=O)O)CCN(CC(=O)O)CCN(CC(=O)O)CC1)C(=O)N[C@@H](Cc1c[nH]c2ccccc12)C(=O)N[C@@H](Cc1ccc(C(=O)c2ccccc2)cc1)C(=O)N1CCC[C@H]1C(=O)NNC(N)=O [BRU-2766] | – | – | EC50 [2]: 620 nM |
| N=C(N)NCCC[C@@H](NC(=O)[C@H](Cc1c[nH]cn1)NC(=O)[C@H](CO)NC(=O)[C@H](Cc1c[nH]c2ccccc12)NC(=O)[C@H](Cc1c[nH]cn1)NC(=O)[C@@H](Cc1ccccc1)NC(=O)CN1CCN(CC(=O)O)CCN(CC(=O)O)CCN(CC(=O)O)CC1)C(=O)N[C@@H](Cc1c[nH]c2ccccc12)C(=O)N[C@@H](Cc1ccc(C(=O)c2ccccc2)cc1)C(=O)N1CCC[C@H]1C(=O)NNC(N)=O [BRU-2894] | – | – | EC50 [2]: 2000 nM |
| N=C(N)NCCC[C@H](NC(=O)[C@@H](Cc1ccc2ccccc2c1)NC(=O)CN1CCN(CC(=O)O)CCN(CC(=O)O)CCN(CC(=O)O)CC1)C(=O)N[C@@H](Cc1c[nH]c2ccccc12)C(=O)N[C@@H](CO)C(=O)N[C@@H](Cc1c[nH]cn1)C(=O)N[C@H](CCCNC(=N)N)C(=O)N[C@@H](Cc1c[nH]c2ccccc12)C(=O)N[C@@H](Cc1ccc(C(=O)c2ccccc2)cc1)C(=O)N1CCCC[C@H]1C(=O)NNC(N)=O [compound 2996] | – | 350 | – |
| N=C(N)NCCC[C@H](NC(=O)CNC(=O)[C@@H]1CCCN1C(=O)[C@H](Cc1ccc(C(=O)c2ccccc2)cc1)NC(=O)[C@H](Cc1c[nH]c2ccccc12)NC(=O)[C@@H](CCCNC(=N)N)NC(=O)[C@H](Cc1c[nH]cn1)NC(=O)[C@H](CO)NC(=O)[C@H](Cc1c[nH]c2ccccc12)NC(=O)[C@H](CCCNC(=N)N)NC(=O)[C@@H](Cc1ccc2ccccc2c1)NC(=O)CN1CCN(CC(=O)O)CCN(CC(=O)O)CCN(CC(=O)O)CC1)C(N)=O [compound 2969] ({DOTA}-[d2Nal]RWSH[dR]W[Bpa]PGR-NH2) | – | 240 | – |
| CCN=C(NCC)NCCCC[C@@H](NC(=O)[C@H](Cc1c[nH]cn1)NC(=O)[C@H](CO)NC(=O)[C@H](Cc1c[nH]c2ccccc12)NC(=O)[C@H](Cc1c[nH]cn1)NC(=O)CN(C)C(=O)CN1CCN(CC(=O)O)CCN(CC(=O)O)CCN(CC(=O)O)CC1)C(=O)N[C@@H](Cc1c[nH]c2ccccc12)C(=O)N[C@@H](Cc1ccc(C(=O)c2ccccc2)cc1)C(=O)N1CCC[C@H]1C(=O)NNC(N)=O [BRU-2880] | – | 8020 | – |

Reference: patent US20120045393A1 (priority 2009, published 2012)
